These results are taken from US20230138729A1, “Coumarin Derivatives of Sugar Analogs and Uses Thereof” (Rubedo Life Sciences, Inc., priority 2021, published 2023).

The target of experiment [1] is T1, Recombinant human GLB1 (rhGLB1) (Homo sapiens, UniProt P16278).
T1 sequence (P16278 29-677): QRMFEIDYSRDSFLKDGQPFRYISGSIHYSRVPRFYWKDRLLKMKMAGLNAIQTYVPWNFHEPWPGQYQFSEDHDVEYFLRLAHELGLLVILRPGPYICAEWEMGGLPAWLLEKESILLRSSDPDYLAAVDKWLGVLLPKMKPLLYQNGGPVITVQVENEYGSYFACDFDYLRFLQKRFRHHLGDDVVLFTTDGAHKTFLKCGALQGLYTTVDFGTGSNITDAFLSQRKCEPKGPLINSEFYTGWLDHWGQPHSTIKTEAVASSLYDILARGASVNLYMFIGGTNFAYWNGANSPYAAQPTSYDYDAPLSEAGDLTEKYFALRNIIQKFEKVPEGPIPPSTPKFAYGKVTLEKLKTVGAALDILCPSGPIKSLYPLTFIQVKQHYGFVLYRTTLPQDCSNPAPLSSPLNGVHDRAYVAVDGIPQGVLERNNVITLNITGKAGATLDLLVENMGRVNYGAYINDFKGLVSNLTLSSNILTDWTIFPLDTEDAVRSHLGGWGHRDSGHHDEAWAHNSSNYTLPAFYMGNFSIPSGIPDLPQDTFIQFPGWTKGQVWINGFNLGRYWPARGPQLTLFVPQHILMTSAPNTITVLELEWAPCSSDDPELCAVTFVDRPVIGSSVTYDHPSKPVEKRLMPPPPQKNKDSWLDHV
The experiment is described as follows: Enzymatic hydrolysis by recombinant human GLB1 (fluorescence reaction velocity). The conditions noted are these: compound 500 uM; for Average percent of MU-Gal reaction velocity: pH 4.4, 37° C., relative to positive control MU-Gal; for rhGLB1 substrate: pH 4.4 McIlvaine Buffer, 37° C. Type of experiment: biochemical. How it is done:
(§1) Compounds were added to wells of a black-walled clear bottom 96 well plate at a concentration of […]. 4-methylumbelliferyl-alpha-L-fucopyranoside (referred to as MU-Fuc, CAS 54322-38-2) or 4-methylumbelliferyl-beta-D-galactopyranoside (referred to as MU-Gal, CAS 6160-78-7) were included as positive control compounds. Recombinant human FUCA1 (1-25 nM) or GLB1 (2-50 nM) in reaction buffer comprised of pH 4.4 McIlvaine Buffer, 2 mM dithiothreitol and 0.1% (v/v) Tween-20 was added to the wells. Enzyme-free controls were included to check for spontaneous compound hydrolysis. The plate was shaken and incubated at 37° C. in the plate reader. Every 5 minutes, fluorescence was read at the excitation wavelength of 330 nm and the emission wavelength of 450 nm for up to 3 hours. Linear regressions were calculated during the linear phase of the reaction to calculate the reaction velocity at each concentration of compound. Reaction velocities for compounds at 500 uM were compared as a percentage of the appropriate positive control compound.
Hydrolysis by the recombinant human GLB1 (rhGLB1) enzyme of modified galactose sugars conjugated to 4-methylumbelliferone was assessed by quantifying the generation of fluorescence over time as described in Example 10 and is compiled in Table 1, supra. Reaction rates of each compound were compared to the hydrolysis rate of the unmodified galactose conjugate MU-Gal. Of the modified galactose compounds tested, compound 42 was rapidly hydrolyzed, at a rate about 8% of that of MU-Gal. Compounds 33 and 6 were hydrolyzed with reaction velocities about 4% or 3% of that of MU-Gal, respectively. Compounds 35, 31, and 27 were hydrolyzed by rhGLB1, but slowly compared to MU-Gal with rates less than 2% of that of MU-Gal.

Experiment [2] concerns the target T2, Recombinant human FUCA1 (rhFUCA1) (Homo sapiens, UniProt P04066).
T2 sequence (P04066 32-466): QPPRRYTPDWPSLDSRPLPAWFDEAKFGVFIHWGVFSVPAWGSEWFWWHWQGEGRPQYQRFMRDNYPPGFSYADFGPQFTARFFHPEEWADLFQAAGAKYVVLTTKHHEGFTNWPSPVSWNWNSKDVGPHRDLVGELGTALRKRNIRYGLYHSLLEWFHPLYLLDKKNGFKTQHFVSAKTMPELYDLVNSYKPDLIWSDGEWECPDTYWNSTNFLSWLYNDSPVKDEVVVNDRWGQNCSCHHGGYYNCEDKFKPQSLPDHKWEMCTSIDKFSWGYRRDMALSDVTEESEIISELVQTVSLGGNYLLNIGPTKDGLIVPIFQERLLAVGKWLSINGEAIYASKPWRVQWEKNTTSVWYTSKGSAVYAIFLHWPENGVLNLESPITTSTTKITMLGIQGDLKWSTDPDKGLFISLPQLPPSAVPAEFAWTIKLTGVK
The experiment can be described thus: Enzymatic hydrolysis by recombinant human FUCA1 (fluorescence reaction velocity). The conditions noted are these: compound 500 uM; for Average reaction velocity relative to MU-Fuc (%): pH 4.4, 37° C., relative to positive control MU-Fuc; for rhFUCA1 substrate: pH 4.4 McIlvaine Buffer, 37° C. In kind it is biochemical. On the procedure:
as §1
Hydrolysis by the recombinant human FUCA1 enzyme (rhFUCA1) of modified fucose sugars conjugated to 4-methylumbelliferone or 7-amino-4-methylcoumarin was assessed by quantifying the generation of fluorescence over time as described in Example 10 and is compiled in Table 1, supra. Reaction rates of each compound were compared to the hydrolysis of the unmodified fucose conjugate MU-Fuc (14). Compound 43 was hydrolyzed by rhFUCA1 at a velocity about 35% of that of MU-Fuc. The reaction rate of 19 with rhFUCA1 was about 30% of that of MU-Fuc.

Experiment [3] deals with T47D breast cancer cells (sgNTC control). The experiment is described as follows: Cellular hydrolysis of compounds in live T47D control cells (4-MU fluorescence). The conditions noted are these: compound 30 uM, naked sugar and acetylated version; for Average percent of product relative to 26 at 72 hours in T47D control cells: modified galactose conjugates. Type of experiment: cell-based. On the procedure: (§2) T47D breast cancer cells were cultured in RPMI 1640 medium containing 10% heat inactivated fetal bovine serum. Cell lines were infected with lentiviral construct(s) containing S. pyogenes Cas9 and sgRNA(s) targeting the gene(s) of interest (sgNTC, non-targeting control; sgFUCA1_1, FUCA1 knockout). Infected cells were selected by antibiotic treatment. To assess the cellular hydrolysis of compounds, cells were seeded at 3-20,000 cells per well into 96-well plates and incubated at 37° C. with 5% CO2. The next day, compounds (30 uM) were added to the cells. Wells containing only compounds in media were included as background fluorescence controls. 4-methylumbelliferyl-alpha-L-fucopyranoside (referred to as MU-Fuc, CAS 54322-38-2) or 4-methylumbelliferyl-2,3,4,6-tetra-O-acetyl-beta-D-galactopyranoside (CAS 6160-79-8) were included as positive controls. A 4-methylumbelliferone (referred to as 4-MU, CAS 90-33-5) standard ladder ranging from 39 to 5000 pmoles was added to each cell line. Fluorescence was read at the excitation wavelength of 330 nm and the emission wavelength of 450 nm on the plate reader every 24 hours for 72 hours. The plate was returned to the 37° C. 5% CO2 incubator between readings. A linear regression was performed to determine the slope of the line relating fluorescence to pmoles of 4-MU standard at each time point. The average cell-free background fluorescence for each compound at each time point was subtracted from all compound sample fluorescence measurements. Compound sample fluorescence was converted to pmoles of 4-MU by dividing by the slope of the 4-MU linear regression. The amount of 4-MU present at 72 hours for each compound in each cell line was compared as a percentage of the appropriate positive control compound.
The hydrolysis of modified galactose sugars conjugated to 4-methylumbelliferone in live cells was assessed by incubating the compounds in media with T47D breast cancer cells for 3 days and quantifying the generation of fluorescence over time as described in Example 11 and is compiled in Table 3, supra. […]

Experiment [4] relates to T47D FUCA1 knockout cells. The experiment can be described thus: Cellular hydrolysis in T47D FUCA1 knockout cells versus T47D control cells. In kind it is cell-based. The conditions noted are these: compound 30 uM. How it is done: as §2, with “4-methylumbelliferyl-alpha-L-fucopyranoside (referred to as MU-Fuc, CAS 54322-38-2) or 4-methylumbelliferyl-2,3,4,6-tetra-O-acetyl-beta-D-galactopyranoside (CAS 6160-79-8) were included as positive controls. A 4-methylumbelliferone (referred to as 4-MU, CAS 90-33-5) standard ladder ranging from 39 to 5000 pmoles was added to each cell line.” left out, “The plate was returned to the 37° C.” left out, “The amount of 4-MU present at 72 hours for each compound in each cell line was compared as a percentage of the appropriate positive control compound.” left out

Take `Cc1cc(=O)oc2cc(O[C@@H]3O[C@@H](C)[C@@H](O)[C@@H](O)[C@@H]3O)ccc12` [Compound 14, 4-methyl-7-(((2S,3S,4R,5S,6S)-3,4,5-trihydroxy-6-methyltetrahydro-2H-pyran-2-yl)oxy)-2H-chromen-2-one, reference compound]: in experiment [1], the “Average percent of MU-Gal reaction velocity” value turned out to be 7.6% and the rhGLB1 substrate result is “yes”. Moreover, in experiment [2], the “Average reaction velocity relative to MU-Fuc (%)” value is listed as 100% and the rhFUCA1 substrate result is “yes”. Also, the “Average percent of product relative to MU-Fuc (14) at 72 hours by T47D control cells” value in experiment [3] (modified fucose conjugates) is given as 100%. For the compound `Cc1cc(=O)oc2cc(O[C@H]3C[C@H](O)[C@H](O)[C@H](C)O3)ccc12` [Compound 19, (2S,3R,4S,6S)-2-methyl-6-((4-methyl-2-oxo-2H-chromen-7-yl)oxy)tetrahydro-2H-pyran-3,4-diyl diol], in experiment [2], the rhFUCA1 substrate entry is reported as “yes”. In the case of `Cc1cc(=O)oc2cc(O[C@H]3C[C@@H](O)[C@@H](O)[C@@H](CO)O3)ccc12` [Compound 24], in experiment [1], the “Average percent of MU-Gal reaction velocity” value came out at 0%; the rhGLB1 substrate entry was “not hydrolyzed and no”. In the case of `Cc1cc(=O)oc2cc(O[C@@H]3O[C@H](CO)[C@H](O)[C@H](F)[C@H]3O)ccc12` [Compound 31], the rhGLB1 substrate entry in experiment [1] was “yes”. On the same count and under the same terms, in the case of `Cc1cc(=O)oc2cc(O[C@@H]3O[C@H](CO)C[C@H](O)[C@H]3O)ccc12` [Compound 33] it was “yes”; in that of `Cc1cc(=O)oc2cc(O[C@@H]3O[C@H](CO)[C@H](O)C[C@H]3O)ccc12` [Compound 35], “yes”. With `COc1ccc(C2O[C@H]3[C@H](O)[C@H](Oc4ccc5c(C)cc(=O)oc5c4)O[C@@H](C)[C@H]3O2)cc1` (stereo partly drawn) [Compound 43, 7-(((3aR,4S,6S,7S,7aS)-7-hydroxy-2-(4-methoxyphenyl)-4-methyltetrahydro-3aH-[1,3]dioxolo[4,5-c]pyran-6-yl)oxy)-4-methyl-2H-chromen-2-one], the rhFUCA1 substrate result in experiment [2] is on record as “yes”. Turning to `CC(=O)O[C@H]1[C@H](OC(C)=O)[C@H](Oc2ccc3c(C)cc(=O)oc3c2)O[C@@H](C)[C@H]1OC(C)=O` [Compound 44], the “Average percent of product formed by each compound at 72 hours in T47D FUCA1 knockout cells relative to product formed in T47D control cells” value in experiment [4] is on record as 8%. Turning to `Cc1cc(=O)oc2cc(NC(=O)OCc3ccc(O[C@@H]4O[C@@H](C)[C@@H](O)[C@@H](O)[C@@H]4O)cc3)ccc12` [Compound 50, [4-[(2S,3S,4R,5S,6S)-3,4,5-trihydroxy-6-methyl-tetrahydropyran-2-yl]oxyphenyl]methyl N-(4-methyl-2-oxo-chromen-7-yl)carbamate], in experiment [2], the “Average reaction velocity relative to MU-Fuc (%)” value turned out to be 16.7% and the rhFUCA1 substrate result is given as “yes”. Regarding `Cc1cc(=O)oc2cc(NC(=O)OCc3ccc(NC(=O)O[C@@H]4O[C@@H](C)[C@@H](O)[C@@H](O)[C@@H]4O)cc3)ccc12` [Compound 59, [4-[[(2S,3S,4R,5S,6S)-3,4,5-trihydroxy-6-methyl-tetrahydropyran-2-yl]oxycarbonylamino]phenyl]methyl N-(4-methyl-2-oxo-chromen-7-yl)carbamate], the rhFUCA1 substrate result in experiment [2] was “yes”. Take `Cc1cc(=O)oc2cc(O[C@@H]3O[C@H](CO)[C@H](O)[C@H](O)[C@H]3O)ccc12` [MU-Gal, 4-methylumbelliferyl-beta-D-galactopyranoside, reference compound]: in experiment [1], the “Average percent of MU-Gal reaction velocity” value came to 100% and the rhGLB1 substrate result is “yes”. In the case of “(2R,3S,4S,5R,6S)-2-(acetoxymethyl)-5-fluoro-6-((4-methyl-2-oxo-2H-chromen-7-yl)oxy)tetrahydro-2H-pyran-3,4-diyl diol [Compound 20]”, in experiment [1], the “Average percent of MU-Gal reaction velocity” value was 0%; the rhGLB1 substrate entry was “not hydrolyzed and no”. The “Average percent of product relative to 26 at 72 hours in T47D control cells” value in experiment [3] was 0%.

As for “(2S,3R,4R,5S,6S)-5-fluoro-2-methyl-6((4-methyl-2-oxo-2H-chromen-7-yl)oxy)tetrahydro-2H-pyran-3,4-diyl diacetate [Compound 27]”, in experiment [1], the rhGLB1 substrate result is “yes”. For the same compound, the “Average percent of product relative to 26 at 72 hours in T47D control cells” value in experiment [3] is reported as 13%.
